Assay results as given in publication PMC8533752, “Characterization of Microtubule Destabilizing Drugs: A Quantitative Cell-Based Assay That Bridges the Gap between Tubulin Based- and Cytotoxicity Assays” (Cancers, 2021).

Experiments:
[1] = tested on: cellular microtubules in HeLa cells; assay: Quantitative immunoluminescent assay of the cellular microtubule content; format: cell-based; settings: Homo sapiens, 0.5 h, 30 min incubation, mean ± SEM, read-out: IC50, drug concentration able to reduce the amount of cellular microtubules by half
Procedure: 7500 HeLa cells were seeded in 96-well microplates (#655086, Greiner bio One, Courtaboeuf, France) in 100 µL of complete medium per well and then incubated at 37 °C in 5% CO2 for 24 h. Cells were then treated for 30 min at 37 °C with the compounds at concentrations ranging from 1 to 5000 nM (1 microplate per molecule, 1 concentration per column), with 0.1% DMSO used as […] control (6 wells per microplate). After medium aspiration, treated cells were permeabilized for 10 min using 100 µL per well of warmed (37 °C) OPT buffer (80 mM Pipes, 1 mM EGTA, 1 mM MgCl2, 0.5% Triton X-100, and 10% glycerol, pH 6.8). Cells were fixed overnight at room temperature using 100 µL per well of 4% formaldehyde (Sigma Aldrich, #252549, Saint-Quentin-Fallavier, France) in PBS. Cells were washed 3 times in PBS, 0.1% Tween-20 (100 µL per well), then primary anti-alpha-tubulin antibody (clone α3A1 [40], 1:5000 in PBS 2% Bovine Serum Albumin (BSA)) was added for 45 min. Cells were washed twice again and secondary anti-mouse antibody coupled to HRP (1:2000 in PBS 2% BSA, #715-035-150, Jackson Immuno-Research Laboratories, Cambridgeshire, UK) was added for 45 min. Then, cells were washed again with PBS and 100 µL of ECL substrate (#170-5061, Bio-Rad Laboratories inc., USA) were injected in each well using the FLUOstar OPTIMA Microplate Reader (BMG Lab technology, Champagny-sur-Marne, France). The luminescent signal was read immediately after ECL injection.

HeLa cells microtubules = assay: Immunofluorescence analysis of HeLa cells microtubules; format: cell-based, Human; settings: 50 nM, 30 min
Procedure: (§1) Cells at a density of 20,000 cells per well were grown for 48 h on glass coverslips placed in a 24-well microplate. When cells reached 70% confluence, the medium was replaced with a fresh one supplemented with DMSO (0.005% or 0.01%) or the test compound at 50 nM or 1000 nM. After 30 min of incubation, cells were permeabilized in warm OPT buffer (80 mmol/L Pipes, […], 0.5% Triton X-100 and 10% Glycerol, pH 6.8) and fixed for 6 min in −20 °C methanol (Carlo ERBA SAS, #414855, Val-de-Reuil, France). After washing and saturation with a specific blocking buffer (3% BSA), 10% Goat serum (Gibco Invitrogen, #16210064, Carlsbad, CA, USA) in PBS), cells were incubated for 45 min at room temperature (RT) with anti-alpha-tubulin antibody (clone α3A1 [40] in blocking buffer). Cells were washed twice again and subsequently incubated with Alexa 488 conjugated anti-mouse antibody (1:500 in blocking buffer, #115-545-166, Jackson immune-research laboratory, Cambridgeshire, UK) and DNA was stained with Hoechst 33342 (1:10,000 in blocking buffer) for 30 min at RT. Coverslips were mounted on glass slides with Moviol 4–88.
(§2) Images were captured with a Zeiss AxioimagerM2 microscope equipped with the acquisition software AxioVision (Marly-le-Roi, France).

RPE1 cell microtubules = assay: Immunofluorescence analysis of RPE1 cell microtubules; format: cell-based, human; settings: RPE1 cells, 50 nM, 30 min
Procedure: as §1, §2

HeLa cells = assay: Cell viability, PrestoBlue assay, HeLa; format: cell-based; settings: Homo sapiens, 48 h, mean ± SEM, read-out: GI50 (concentration causing 50% cell growth inhibition)
Procedure: (§3) Cell viability was analyzed using the colorimetric PrestoBlue assay (Gibco Invitrogen, #A13262, Carlsbad, CA, USA). Cells were seeded in 96-well microplates (#655077, Greiner, Courtaboeuf, France) at density of 2500 cells per well and allowed to adhere for 24 h before being treated for 48 h with the drugs at indicated concentrations or corresponding concentrations of DMSO as controls, in a final volume of 90 µL. After 48 h of treatment, 10 µL PrestoBlue was added to each well and cells were incubated for another 45 min. The absorbance of each well was measured using a FLUOstar microplate reader (Excitation: 544 nm; Emission: 580 nm, BMG Lab technology, Champagny/Marne, France).

RPE-1 cells = assay: Cell viability, PrestoBlue assay, RPE-1; format: cell-based; settings: Homo sapiens, 48 h, mean ± SEM, read-out: GI50 (concentration causing 50% cell growth inhibition)
Procedure: as §3

tubulin = tested on: tubulin; parameters: method as in PMID 32781579; settings: cited from earlier work
[2] = tested on: microtubular network of interphase cells; parameters: method as in PMID 32781579; settings: cited from earlier work
porcine tubulin = porcine tubulin (Sus scrofa, UniProt P02550+P02554); assay: biochemical
Chain of porcine tubulin (P02554 whole entry): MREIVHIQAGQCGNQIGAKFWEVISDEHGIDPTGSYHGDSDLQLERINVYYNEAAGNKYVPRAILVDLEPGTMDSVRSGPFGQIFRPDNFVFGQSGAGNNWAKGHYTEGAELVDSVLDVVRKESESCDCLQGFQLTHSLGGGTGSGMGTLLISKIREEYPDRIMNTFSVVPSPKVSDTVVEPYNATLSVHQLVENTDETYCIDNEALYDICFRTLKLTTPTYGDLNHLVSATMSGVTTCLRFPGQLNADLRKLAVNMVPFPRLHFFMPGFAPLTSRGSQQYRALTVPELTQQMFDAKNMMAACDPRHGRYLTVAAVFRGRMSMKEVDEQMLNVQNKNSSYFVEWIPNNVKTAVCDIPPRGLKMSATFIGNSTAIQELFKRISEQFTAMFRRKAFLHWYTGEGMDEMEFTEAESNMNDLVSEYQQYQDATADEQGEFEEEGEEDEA
Chain of porcine tubulin (P02550 whole entry): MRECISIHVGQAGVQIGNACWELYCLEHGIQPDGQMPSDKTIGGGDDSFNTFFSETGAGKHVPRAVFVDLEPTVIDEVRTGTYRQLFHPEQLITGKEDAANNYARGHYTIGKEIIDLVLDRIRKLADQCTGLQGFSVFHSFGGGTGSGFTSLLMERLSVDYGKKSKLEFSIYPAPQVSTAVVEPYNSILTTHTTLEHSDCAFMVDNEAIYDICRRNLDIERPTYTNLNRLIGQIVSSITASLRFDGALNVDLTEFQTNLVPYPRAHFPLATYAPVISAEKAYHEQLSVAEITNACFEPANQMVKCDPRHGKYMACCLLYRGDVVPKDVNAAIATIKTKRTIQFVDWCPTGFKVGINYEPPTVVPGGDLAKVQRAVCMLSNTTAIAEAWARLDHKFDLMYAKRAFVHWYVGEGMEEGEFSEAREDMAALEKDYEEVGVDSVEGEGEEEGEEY
Procedure: Tubulin polymerization kit ((#BK004) was purchased from Cytoskeleton, Inc. (Denver, CO, USA). To study the effect of the compounds on MT assembly, the absorbance-based in vitro tubulin polymerization assay was performed following the manufacturer’s protocol. The reaction mixture containing porcine tubulin (40 µM) in G-PEM buffer (80 mM PIPES pH 6.9, 2.0 mM MgCl2, 0.5 mM EGTA, and 5% glycerol) supplemented with 1.0 mM GTP, in the presence of DMSO (0.18%) or the compound to be tested, was prepared and added to each well of a 96-well plate (half area, #675096, Greiner Bio One, Courtaboeuf, France). Tubulin polymerization was monitored by the increase in absorbance over time, measured by a CLARIOstar^plus Microplate reader from BMG Lab technology (Champagny-sur-Marne, France).

Row | Structure (SMILES) | IC50 [1] [nM] | state of the MT network by immunofluorescence (HeLa cells microtubules) | effect on cell microtubules by immunofluorescence (RPE1 cell microtubules) | GI50 (HeLa cells) [nM] | GI50 (RPE-1 cells) [nM] | effect on tubulin assembly kinetics (tubulin) | effect on the microtubular network of interphase cells [2] | IC50 (porcine tubulin) [nM] | concentration giving almost complete depolymerization / inhibition of tubulin assembly (porcine tubulin; tubulin 40 µM) [µM]
1 | COc1ccc(/C=C\c2cc(OC)c(OC)c(OC)c2)cc1O [C-A4, combretastatin-A4] | 4.5 ± 0.76 | only few MTs remain | depolymerized cell microtubules | 0.93 ± 0.07 | 4.16 ± 1.42 |  |  |  | 
2 | Cc1cc(-n2cccc2)c(C)c2c1[nH]c1ccc(Cl)cc12 [Carba1] |  |  |  |  |  | visible depolymerizing effect | no detectable effect |  | 
3 | COc1cc2c(c(OC)c1OC)-c1ccc(OC)c(=O)cc1[C@@H](NC(C)=O)CC2 [colchicine] |  | a MT network is still present |  |  |  |  |  |  | 
4 | COC(=O)Nc1nc2ccc(C(=O)c3cccs3)cc2[nH]1 [nocodazole] | 350 ± 76.4 | a MT network is still present |  | 49.3 ± 2.6 | 81.7 ± 4.41 |  |  | ~5000 | ≥ 40
5 | CC[C@]1(O)C[C@@H]2CN(CCc3c([nH]c4ccccc34)[C@@](C(=O)OC)(c3cc4c(cc3OC)N(C)[C@H]3[C@@](O)(C(=O)OC)[C@H](OC(C)=O)[C@]5(CC)C=CCN6CC[C@]43[C@@H]65)C2)C1 [vinblastine] | 4.83 ± 0.17 | only few MTs remain | depolymerized cell microtubules | 0.73 ± 0.02 | 0.7 ± 0.77 |  |  | ~1000 | 
